By Ki is commonly meant the dissociation constant of the complex between target and ligand, obtained from inhibition or displacement.

Where two headings read alike, the source gives them in different places.

Our source for the Ki values is patent US7635716B2, “Substituted cyclopentanes or cyclopentanones as therapeutic agents” (Allergan, Inc., priority 2005, dated 2009).

For assay [1], the target named is T1, hEP4 (Homo sapiens, UniProt P35408).
T1 construct: expressed in transfected cells; host or cells: HEK-293 cells (plasma membrane fraction)
T1 sequence (P35408 whole entry): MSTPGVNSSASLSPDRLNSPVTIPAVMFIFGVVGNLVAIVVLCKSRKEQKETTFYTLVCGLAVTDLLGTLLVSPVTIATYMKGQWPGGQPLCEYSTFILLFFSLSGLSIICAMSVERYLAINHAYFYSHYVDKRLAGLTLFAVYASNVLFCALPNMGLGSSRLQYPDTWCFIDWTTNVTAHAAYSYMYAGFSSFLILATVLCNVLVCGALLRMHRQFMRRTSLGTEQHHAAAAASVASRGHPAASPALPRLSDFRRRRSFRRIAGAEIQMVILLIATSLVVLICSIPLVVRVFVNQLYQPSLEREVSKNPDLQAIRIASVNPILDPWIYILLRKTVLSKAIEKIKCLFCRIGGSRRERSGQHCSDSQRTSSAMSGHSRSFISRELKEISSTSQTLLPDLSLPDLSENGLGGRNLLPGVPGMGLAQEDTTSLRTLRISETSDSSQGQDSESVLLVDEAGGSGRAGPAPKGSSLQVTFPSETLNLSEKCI
In words: Radioligand binding, [3H]PGE2, HEK-293 cells stably expressing EP4 receptors. The procedure:
(§1) HEK-293 cells stably expressing the human or feline FP receptor, or EP1, EP2, or EP4 receptors were washed with TME buffer, scraped from the bottom of the flasks, and homogenized for 30 sec using a Brinkman PT 10/35 polytron. TME buffer was added to achieve a final 40 ml volume in the centrifuge tubes (the composition of TME is 100 mM TRIS base, 20 mM MgCl2, […]; 10N HCl is added to achieve a pH of 7.4).
(§2) The cell homogenate was centrifuged at 19000 r.p.m. for 20 min at 4° C. using a Beckman Ti-60 rotor. The resultant pellet was resuspended in TME buffer to give a final 1 mg/ml protein concentration, as determined by Biorad assay. Radioligand binding competition assays vs. [^3H—]17 phenyl PGF2. (5 nM) were performed in a 100 μl volume for 60 min. Binding reactions were started by adding plasma membrane fraction. The reaction was terminated by the addition of 4 ml ice-cold TRIS-HCl buffer and rapid filtration through glass fiber GF/B filters using a Brandel cell harvester. The filters were washed 3 times with ice-cold buffer and oven dried for one hour.
[^3H—] PGE2 (specific activity 180 Ci mmol) was used as the radioligand for EP receptors. [^3H] 17-phenyl PGF2α was employed for FP receptor binding studies. […] A 200 μl assay volume was used. Incubations were for 60 min at 25° C. and were terminated by the addition of 4 ml of ice-cold 50 mM TRIS-HCl, followed by rapid filtration through Whatman GF/B filters and three additional 4 ml washes in a cell harvester (Brandel). Competition studies were performed using a final concentration of 5 nM [^3H]-PGE2, or 5 nM [^3H] 17-phenyl PGF2α and non-specific binding determined with 10^−5M of unlabeled PGE2, or 17-phenyl PGF2α, according to receptor subtype studied.

Assay [2] addresses hEP2 (Homo sapiens, UniProt P43116). In words: Competition binding, [3H]PGE2, HEK 293 cells stably expressing human EP2 receptors. On the set-up: expressed in transfected cells; host or cells: HEK 293 cells (membranes or whole cells). The procedure:
Competition binding experiments were performed in a medium containing Hank's balanced salt solution, Hepes 20 mM, pH 7.3, membranes (˜60 μg protein) or 2×10^5 cells from HEK 293 cells stably expressing human EP2 receptors, [^3H]PGE2 (10 nM) and various concentrations of test compounds in a total volume of 300 μL. Reaction mixtures were incubated at 23° C. for 60 min, and were filtered over Whatman GF/B filters under vacuum. Filters were washed three times with 5 ml ice-cold buffer containing 50 mM Tris/HCl (pH 7.3). Non-specific binding was estimated in the presence of excess unlabeled PGE2 (10 μM). Binding data fitted to the binding model for a single class of binding sites, using nonlinear regression analysis. IC50 values thus obtained were converted to Ki using the equation of Ki=(IC50/(1+[L]/KD) where [L] represents PGE2 concentration (10 nM) and KD the dissociation constant for [^3H]PGE2 at human EP2 receptors (40 nM).
as §1, §2
[^3H—] PGE2 (specific activity 180 Ci mmol) was used as the radioligand for EP receptors. [^3H] 17-phenyl PGF2α was employed for FP receptor binding studies. Binding studies employing EP1, EP2, EP4 and FP receptors were performed in duplicate in at least three separate experiments. A 200 μl assay volume was used. Incubations were for 60 min at 25° C. and were terminated by the addition of 4 ml of ice-cold 50 mM TRIS-HCl, followed by rapid filtration through Whatman GF/B filters and three additional 4 ml washes in a cell harvester (Brandel). Competition studies were performed using a final concentration of 5 nM [^3H]-PGE2, or 5 nM [^3H] 17-phenyl PGF2α and non-specific binding determined with 10^−5M of unlabeled PGE2, or 17-phenyl PGF2α, according to receptor subtype studied.

[3] abbreviates: Table 1, first part, triplicate, read-out: binding data (Ki) hEP4.
Setting [4] is: Table 1, first part, triplicate, read-out: binding data (Ki) hEP2.
Setting [5] is: Table 1, second part, read-out: hEP4 Ki.
The mark [6] stands for this setting: Table 1, second part, read-out: hEP2 Ki.

hEP2, sequence (P43116 whole entry): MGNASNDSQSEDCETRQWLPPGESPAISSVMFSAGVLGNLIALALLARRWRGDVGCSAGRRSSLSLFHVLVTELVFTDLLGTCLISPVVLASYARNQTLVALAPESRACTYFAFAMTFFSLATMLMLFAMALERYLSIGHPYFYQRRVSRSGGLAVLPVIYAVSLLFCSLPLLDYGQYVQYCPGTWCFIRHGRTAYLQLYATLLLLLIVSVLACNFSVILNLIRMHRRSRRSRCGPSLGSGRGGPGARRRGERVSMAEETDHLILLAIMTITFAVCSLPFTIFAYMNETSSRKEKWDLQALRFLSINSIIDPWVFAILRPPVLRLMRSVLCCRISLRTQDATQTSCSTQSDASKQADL

For `O=C(O)CCCCCC[C@H]1C(=O)CC[C@@H]1COc1ccccc1` [Example 6, 7-((1R,5S)-2-Oxo-5-phenoxymethyl-cyclopentyl)-heptanoic acid], the Ki in assay [1] (setting [3]) came out at 2.65 µM; in assay [2] (setting [4]), 6.25 µM.

Regarding `O=C(O)CCC/C=C\C[C@@H]1[C@@H](COc2ccccc2)[C@H](O)C[C@H]1Cl` [Example 8, (Z)-7-((1R,2S,3R,5R)-5-Chloro-3-hydroxy-2-phenoxymethyl-cyclopentyl)-hept-5-enoic acid], the Ki was above 10 µM in assay [1] (setting [3]), above 10 µM in assay [1] (setting [5]) and 1.26 µM in assay [2] (setting [4]).

As for `O=C(O)CCCCCC[C@@H]1[C@@H](COc2ccccc2)[C@H](O)C[C@H]1Cl` [Example 10, 7-((1R,2S,3R,5R)-5-Chloro-3-hydroxy-2-phenoxymethyl-cyclopentyl)-heptanoic acid], the Ki is above 10 µM in assay [1] (setting [3]), above 10 µM in assay [1] (setting [5]) and 1.7 µM in assay [2] (setting [4]).

Regarding `O=C(O)CCC/C=C\C[C@@H]1[C@@H](COc2cc(Cl)cc(Cl)c2)[C@H](O)C[C@H]1Cl` [Example 12, (Z)-7-[(1R,2S,3R,5R)-5-Chloro-2-(3,5-dichloro-phenoxymethyl)-3-hydroxy-cyclopentyl]-hept-5-enoic acid], the Ki is 0.94 µM in assay [1] (setting [3]), 0.94 µM in assay [1] (setting [5]), 0.012 µM in assay [2] (setting [4]) and 0.012 µM in assay [2] (setting [6]).

With `O=C(O)CCCCCC[C@@H]1[C@@H](COc2cc(Cl)cc(Cl)c2)[C@H](O)C[C@H]1Cl` [Example 14, 7-[(1R,2S,3R,5R)-5-Chloro-2-(3,5-dichloro-phenoxymethyl)-3-hydroxy-cyclopentyl]-heptanoic acid], the values for the Ki in assay [1] (setting [3]) and in assay [2] (setting [4]) were 3.04 µM and 0.076 µM, respectively.

Take “(Z)-7-((1R,2S,3R)-3-Hydroxy-5-oxo-2-phenoxymethyl-cyclopentyl)-hept-5-enoic acid [Example 4]”: the Ki in assay [1] (setting [3]) was above 10 µM; in assay [1] (setting [5]), above 10 µM; in assay [2] (setting [4]), 13.4 µM; in assay [2] (setting [6]) it was above 10 µM.

As to “(Z)-7-((1R,5S)-2-Oxo-5-phenoxymethyl-cyclopent-3-enyl)-hept-5-enoic acid [Example 3]”, the Ki was above 10 µM in assay [1] (setting [3]), above 10 µM in assay [1] (setting [5]), above 10 µM in assay [2] (setting [4]) and 13.4 µM in assay [2] (setting [6]).
